Data as given in paper PMC9011347, “Small-Molecule Inhibitors Targeting Lipolysis in Human Adipocytes” (Journal of the American Chemical Society, 2022).
pIC50: −log10 of the molar value.

Target: T1, mouse ATGL I69F/T146G double mutant (Mus musculus, UniProt Q8BJ56, I69F/T146G)
T1 construct: host or cells: Expi293 cells, cell lysate
Experiment: TAG hydrolase assay, humanized mouse ATGL variants
Format: biochemical
Details: I69F/T146G double mutant of mouse ATGL
Text: The region between aa 60 and 146 of human and mouse ATGL comprises 12 nonidentical aa. We generated 3D homology models for the minimal active domain of mouse ATGL to obtain more detailed insight into the topology of the relevant region (Figure 5d). Based on this model, aa T101, C106, R109, N111, and S133 locate at peripheral (loop) regions (indicated in orange, Figure 5d). […] For all other nonidentical aa (indicated in magenta, Figure 5d), we generated variants with single aa substitutions. The humanized variants A60V, N68K, T93I, and C97F were inactivated by Ai but not NG-497 (Figure 5a).
Figure 6 Identification of the molecular scaffold determining species selectivity. (a) Schematic view of mouse ATGL variants, which are sensitive to NG-497 inhibition. Humanized aa are indicated in red and nonidentical aa are indicated in dark blue. (b) Dose-dependent inhibition of the I69F/T146G double mutant, the I69F/T93I/C97F/T146G quadruple mutant, and human ATGL. (c) Dose-dependent inhibition of triple mutants I69F/T93I/T146G and I69F/C97F/T146G, and human ATGL. IC50 values are shown in the insets. […]
Expression of recombinant ATGL constructs and preparation of cell lysates. […] Protein concentrations were determined using Bio-Rad protein assay (Bio-Rad 785, Bio-Rad Laboratories, Munich, Germany) using BSA as standard. […]

T1 sequence (Q8BJ56 whole entry I69F/T146G): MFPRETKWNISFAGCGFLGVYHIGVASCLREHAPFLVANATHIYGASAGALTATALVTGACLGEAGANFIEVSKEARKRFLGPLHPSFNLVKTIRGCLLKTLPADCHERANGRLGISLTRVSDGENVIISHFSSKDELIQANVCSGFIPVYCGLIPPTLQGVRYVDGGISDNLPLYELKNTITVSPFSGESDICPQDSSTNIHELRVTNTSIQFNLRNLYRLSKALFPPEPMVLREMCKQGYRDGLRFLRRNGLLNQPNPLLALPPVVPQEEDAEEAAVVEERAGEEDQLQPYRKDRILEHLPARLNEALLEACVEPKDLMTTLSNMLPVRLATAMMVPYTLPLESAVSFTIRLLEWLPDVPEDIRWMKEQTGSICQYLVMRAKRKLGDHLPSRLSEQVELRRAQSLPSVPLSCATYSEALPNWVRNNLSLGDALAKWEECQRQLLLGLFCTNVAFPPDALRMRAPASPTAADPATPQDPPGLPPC

Molecule `CCOc1ccc(-c2cc(OC)cc(C(=O)OC(C)C)n2)cc1` [NG-497] has a pIC50 of 5.05.
